Data on two compounds can be found in patent publication US20070134688A1, “CALCULATED INDEX OF GENOMIC EXPRESSION OF ESTROGEN RECEPTOR (ER) AND ER-RELATED GENES” (THE BOARD OF REGENTS OF THE UNIVERSITY OF TEXAS SYSTEM, priority 2005, published 2007).

Assay [1] has as its system ER-positive breast cancer. The assay is described as follows: Distant relapse-free survival after adjuvant tamoxifen. The class given is in vivo, human. The settings on record: ER-positive patients on adjuvant tamoxifen. On the procedure:
Patients and Samples. […] At MDACC, pre-treatment fine needle aspiration (FNA) samples of primary breast cancer were obtained using a 23-gauge needle and the cells from 1-2 passes were collected into a vial containing 1 ml of RNAlater™ solution (Ambion, Austin Tex.) and stored at −80° C. until use, whereas archival frozen samples were evaluated from resected, metastatic, ER-positive breast cancer. All patients signed an informed consent for voluntary participation to collect samples for research. At other institutions, fresh tissue samples of surgically resected primary breast cancer were frozen in OCT compound and stored at −80° C.
Statistical Analysis of Distant relapse-free survival (DRFS). Distant relapse-free survival (DRFS) was defined as the interval from breast surgery until diagnosis of distant metastasis. Covariate effects on distant relapse risk after tamoxifen treatment were evaluated using log-rank test in multivariate Cox proportional hazards models stratified by institution. […] Confidence intervals of the survival estimate were calculated based on the Tsiatis variance estimates of the cumulative log-hazards (Therneau and Grambsch, 2000). […]

Assay [2] relates to ER-positive cancer. To be noted: compared to placebo, cited from earlier work.

As for `CC/C(=C(\c1ccccc1)c1ccc(OCCN(C)C)cc1)c1ccccc1` [tamoxifen], the “mean relapse-free survival at 10 years” value came out at 57.1% in assay [1] (SET index<2) and 90.0% in assay [1] (SET index>5).

For `N#Cc1ccc(C(c2ccc(C#N)cc2)n2cncn2)cc1` [letrozole], in assay [2] (after 2.4 years, after 5 years of adjuvant tamoxifen), the “relative reduction in deaths” value is reported as 24%. In addition, the “absolute difference in recurrence or new primaries” value in assay [2] (at 2.4 years) is 2.2%.
